Paper PMC7504215, “Copper(II) Complexes with Mixed Heterocycle Ligands as Promising Antibacterial and Antitumor Species” (Molecules, 2020)
Read-outs that look alike come from different tables or passages of the source.

Legend:
[1] = tested on: B16 (melanoma) tumor cells; assay: MTT cell viability assay; assay type: cell-based, Mouse
Procedure: The cytotoxicity of ligand and copper(II) complexes was tested on normal BJ cell as well as on B16 (melanoma) tumor cells, which were grown for 48 h in culture medium containing the tested complexes in 0–25 μg/mL concentration range.
Human fibroblast cells (BJ-ATCC CRL-2522, Manassas, VA, USA) were grown in minimal essential medium (MEM) supplemented with 2 mM L-Glutamine, 10% fetal calf serum (FCS), 100 units/mL of penicillin and 100 µg/mL of streptomycin at 37 °C in a humidified incubator under an atmosphere containing 5% CO2. Mouse melanoma cells (B16-ATCC CRL-6475, Manassas, VA, USA) were grown in DMEM (Dulbecco’s Modified Eagle Medium) supplemented with similar reagents as MEM. All cell cultivation media and reagents were purchased from Biochrom AG (Berlin, Germany) and Sigma-Aldrich (Darmstadt, Germany).
Cell viability was evaluated using 3-(4,5-dimethylthiazol-2-yl)-2,5-diphenyltetrazolium bromide (MTT) assay, as described previously. First, the cells were seeded in 96-well plates (20,000 cells/well) and cultured for 24 h in medium. After overnight incubation, the medium was changed and the investigated sample in concentration varying from […] was added for 24 h. The negative control was represented by cells cultivated in medium without the investigated compounds. Following incubation, the medium was changed and the MTT solution was added to each well to a final concentration of 1 mg/mL and incubated for additional 4 h, at 37 °C. Finally, the medium was collected and DMSO was used to dissolve the insoluble formazan product. The absorbance of the samples was recorded at 570 nm using a plate reader Mithras 940 (Berthold). The data were corrected for the background and the percentage of viable cells was obtained using the equation:Cell viability = [(A570 of treated cells)/(A570 of untreated cells)] × 100%
The half-maximal inhibitory concentration (IC50) was determined by fitting the data with a logistical sigmoidal equation using the software Origin 8.1 from Microcal Inc. (Los Angeles, CA, USA).

[2] = tested on: human red blood cells (hRBCs); assay: Hemolytic activity (adapted ASTM F 756-00); assay type: cell-based; conditions: 25 µg/mL, 4 h at 37 °C, threshold 5% (ASTM F 756-00)
Procedure: The hemolytic activity of the compounds was determined using an adapted protocol of ASTM F 756–00 standard based on hemoglobin release from human red blood cells (hRBCs) resulting after cell lyses. Briefly, the blood samples were collected from healthy volunteers, diluted to a concentration of hemoglobin ~10 mg/mL with phosphate buffer saline (PBS) and then incubated with various concentrations of compounds for 4 h at 37 °C. After 4 h, the cells were centrifuged, the supernatant was collected, transferred into 96-well tissue culture plates and mixed with Drabkin reagent, which converts hemoglobin to cyanmethemoglobin (absorption peak at 540 nm). After 15 min, the absorbance of the samples was read at 570 nm using a plate reader. The obtained data was background corrected and used to calculate the hemolytic index as percentage of the hemoglobin released after the treatment with the tested compounds, relative to control samples. The hRBCs in PBS and distilled water were used as negative and positive controls.

[3] = tested on: B16 cells; assay: Phalloidin staining and cell imaging (cytoskeleton, nucleus); assay type: cell-based, Mouse; conditions: 24 h, 6 μg/mL
Procedure: (§1) Cytoskeleton actin filaments of BJ and B16 cells were stained with phalloidin-FITC (Sigma-Aldrich, USA) according to the manufacturer’s protocol. Briefly, cells were washed with PBS (5 min, 3 times), fixed for 5 min with 3% paraformaldehyde, washed three times with PBS, permeabilized with 0.1% Triton X-100 in PBS for 15 min, washed three times with PBS, stained with 20 μg mL^−1 phalloidin-FITC at room temperature for 1 h and washed again three times with PBS. Cell nucleus was stained with 8 μM of Hoechst 33342 solution for 10 min, washed three times with PBS and finally, mounted and sealed on glass slides with FluorSave™ Reagent (Merck Millipore, Germany). The fluorescence images were acquired using an Andor DSD2 Confocal Unit (Andor, Ireland), mounted on an epifluorescence microscope, Olympus BX-51 (Olympus, Germany), equipped with a 40x and 100x objective and an appropriate DAPI/Hoechst filter cube (excitation filter 390/40 m, dichroic mirror 405 nm and emission filter 452/45 nm) and GFP/FITC filter cube (excitation filter 466/40 nm, dichroic mirror 488 nm and emission filter 525/54 nm).

[4] = tested on: λ-DNA; assay: UV-Vis absorption titration with DNA; assay type: binding, bacteriophage lambda; conditions: 3 μM complex, increasing λ-DNA, Tris/HCl/NaCl buffer pH 8
Procedure: To determine whether compounds have the capacity to interact with DNA, 48,500 base-pairs of genomic DNA from bacteriophage lambda (λ-DNA, Promega. Madison USA) was used. A stock solution of 10 µM λ-DNA (base-pair concentration) was prepared in 10 mM Tris/HCl buffer containing 1 mM NaCl, pH 8.
The UV-Vis absorption titration experiments were done maintaining constant the complex concentration (3 µM) and increasing the concentration of λ-DNA, in Tris-HCl/NaCl buffer solution, at room temperature, until a saturation state was achieved. After DNA addition, the solutions were allowed to equilibrate for 5 min at room temperature. The UV-Vis absorption spectra were recorded with a Jasco V-630 spectrophotometer, using a 10 mm quartz cell. Stock solutions of compounds were prepared in DMSO (1 mM) and diluted to 3 µM in 10 mM Tris/HCl containing 1 mM NaCl, pH 8.

[5] = tested on: BJ cells; assay: Phalloidin staining and cell imaging (cytoskeleton, nucleus); assay type: cell-based, Human; conditions: 24 h, 6 μg/mL
Procedure: as §1

[6] = tested on: E. coli 25922; assay: MIC assay, liquid medium microdilution (planktonic growth); assay type: cell-based, Escherichia coli; conditions: E. coli 25922, 24 h at 37 °C
Procedure: The antibacterial assays were performed on Gram-negative (Escherichia coli ATCC 25922, E. coli 5, Pseudomonas aeruginosa ATCC 27853, P. aeruginosa ATCC 9027) and Gram-positive (Staphylococcus aureus ATCC 25923, S. aureus ATCC 6538, MRSA (Meticillin-resistant S. aureus) 388, ATCC, American Type Culture Collection) bacterial strains. Microbial suspensions (1.5 × 10^8 CFU/mL; colony forming units (CFU)) corresponding to 0.5 McFarland density obtained from 15 to 18-h bacterial cultures developed on solid media were used. The antimicrobial activity was tested on Mueller–Hinton agar medium.
The quantitative assay of the antimicrobial activity was performed by the liquid medium microdilution method, in 96-well multi-well plates, to establish the minimal inhibitory concentration (MIC). For this purpose, serial two-fold dilutions of the compounds ranging between 1.000 and 1.95 μg/mL were performed in a 200 μL volume of broth and each well was seeded with 50 μL microbial inoculums. Sterility control (wells containing only culture medium) and culture controls (wells containing culture medium seeded with the microbial inoculum) were used. The influence of the DMSO solvent was also quantified in a series of wells containing DMSO, diluted accordingly with the dilution scheme used for the complexes. The plates were incubated for 24 h at 37 °C, and MIC values were considered as the lowest concentration of the tested compound that inhibited the visible growth of the microbial overnight cultures.

[7] = B16 cells, 48 h, MTT, read-out: IC50 B16 Cells 48 h

| Structure (SMILES) | IC50 B16 Cells 24 h ([1]; B16 cells, 24 h, MTT) [µg/mL] | IC50 ([1]; B16 cells, 24 h, MTT, read-out: IC50 B16 Cells 24 h) [µM] | IC50 B16 Cells 48 h ([1]; B16 cells, 48 h, MTT) [µg/mL] | IC50 [1, 7] [µM] | Hemolysis [2] [%] | Cell morphology (cytoskeleton and nucleus) [3] | Change of UV absorption spectrum on binding to λ-DNA [4] | Cell morphology (cytoskeleton and nucleus) [5] | MIC [6] [µM] | Effect on viability of B16 cells ([1]; 24 h of treatment, 0–25 μg/mL) |
| --- | --- | --- | --- | --- | --- | --- | --- | --- | --- | --- |
| Cc1cc(-c2ccccc2)nc2ncnn12.[Cu+2].[O-][Cl+3]([O-])([O-])[O-].[O-][Cl+3]([O-])([O-])[O-].c1cnc2c(c1)ccc1cccnc12.c1cnc2c(c1)ccc1cccnc12 [(2), [Cu(phen)2(pmtp)](ClO4)2] | 6.25 | 7.5 | 3.72 | 4 | 0.77 ± 0.14 | affects the cell morphology | hypochromism observed for the band at 270 nm | affects the cell morphology | 20 |  |
| Cc1cc(-c2ccccc2)nc2ncnn12.[Cu+2].[O-][Cl+3]([O-])([O-])[O-].[O-][Cl+3]([O-])([O-])[O-].c1ccc(-c2ccccn2)nc1.c1ccc(-c2ccccn2)nc1 [(1), [Cu(bpy)2(pmtp)](ClO4)2] |  |  | 15.46 | 20 | 0.59 ± 0.18 | does not alter the morphology of the cells | decrease in the absorption intensity of the band located at 290 nm | does not alter its morphology | 200 | did not affect the viability of B16 cells |
